In PMC7390954 (Frontiers in Microbiology, 2020):
Values after ≈ are worked out from the molar mass of the structure shown. Peptide text beside a SMILES is read from it.

What was measured:
[1] = system: P. aeruginosa UCBPP-PA14 wild-type; assay type: cell-based, Pseudomonas aeruginosa; details: standard twofold dilution MIC in 96-well plates
[2] = system: P. aeruginosa UCBPP-PA14 wild-type and tssK-2 mutant (1:1); assay type: cell-based, Pseudomonas aeruginosa
[3] = system: Pseudomonas aeruginosa UCBPP-PA14 wild-type
P. aeruginosa = details: cited from earlier work

What does the source list for `CC(C)CCCCC(=O)N[C@@H](CCN)C(=O)N[C@H](C(=O)N[C@@H](CCN)C(=O)N[C@H]1CCNC(=O)[C@H]([C@@H](C)O)NC(=O)[C@H](CCN)NC(=O)[C@H](CCN)NC(=O)[C@H](CC(C)C)NC(=O)[C@@H](Cc2ccccc2)NC(=O)[C@H](CCN)NC1=O)[C@@H](C)O` [PMB, polymyxin B2] (HELM PEPTIDE1{[CC(C)CCCCC(=O)[*:2]].[Dab].T.[Dab].[Dab].[Dab].[dF].L.[Dab].[Dab].T}$PEPTIDE1,PEPTIDE1,5:R3-11:R2$$$V2.0)?
MIC, Without Spermidine [1]: 50; MIC, With 4 mM Spermidine ([1]; 4 mM spermidine): >100; fate of tssK-2 mutant in 1:1 mixture with wild-type [2]: out-competed; MIC, BM2 (H) ([3]; BM2 with high (2 mM) Mg2+, MIC = no growth after 10 h): 0.3 µg/mL (≈ 0.252 µM); MIC, BM2 (L) ([3]; BM2 with low (20 μM) Mg2+, 0.002% tween 80, 0.2% rhamnose, MIC = no growth after 10 h): 32 µg/mL (≈ 26.9 µM); Sub-MIC (L) ([3]; BM2 with low (20 μM) Mg2+, concentration that slowed down growth by 30% compared to untreated control): 2 µg/mL

Which MIC90 (P. aeruginosa) does the source give for murepavadin here?
Its MIC90 is 2 µg/mL.
